Read-outs that look alike come from different tables or passages of the source.
Assays:
[1] = molecular target: T1, HMGCoA (3-Hydroxy-3-methylglutaryl CoA) Reductase (Rattus norvegicus, UniProt P51639); assay: HMGCoA reductase assay with rat liver microsomes (14C-HMGCoA); type: biochemical; conditions: in vitro assay, 45 min at 37° C.
T1 construct: Male Charles River Sprague-Dawley rats were fed with 2.5% cholestyramine in rat chow diets for 5 days before sacrificing; from tissue; host or cells: liver microsomes of male Sprague-Dawley rats fed cholestyramine
T1 sequence (P51639 1-887): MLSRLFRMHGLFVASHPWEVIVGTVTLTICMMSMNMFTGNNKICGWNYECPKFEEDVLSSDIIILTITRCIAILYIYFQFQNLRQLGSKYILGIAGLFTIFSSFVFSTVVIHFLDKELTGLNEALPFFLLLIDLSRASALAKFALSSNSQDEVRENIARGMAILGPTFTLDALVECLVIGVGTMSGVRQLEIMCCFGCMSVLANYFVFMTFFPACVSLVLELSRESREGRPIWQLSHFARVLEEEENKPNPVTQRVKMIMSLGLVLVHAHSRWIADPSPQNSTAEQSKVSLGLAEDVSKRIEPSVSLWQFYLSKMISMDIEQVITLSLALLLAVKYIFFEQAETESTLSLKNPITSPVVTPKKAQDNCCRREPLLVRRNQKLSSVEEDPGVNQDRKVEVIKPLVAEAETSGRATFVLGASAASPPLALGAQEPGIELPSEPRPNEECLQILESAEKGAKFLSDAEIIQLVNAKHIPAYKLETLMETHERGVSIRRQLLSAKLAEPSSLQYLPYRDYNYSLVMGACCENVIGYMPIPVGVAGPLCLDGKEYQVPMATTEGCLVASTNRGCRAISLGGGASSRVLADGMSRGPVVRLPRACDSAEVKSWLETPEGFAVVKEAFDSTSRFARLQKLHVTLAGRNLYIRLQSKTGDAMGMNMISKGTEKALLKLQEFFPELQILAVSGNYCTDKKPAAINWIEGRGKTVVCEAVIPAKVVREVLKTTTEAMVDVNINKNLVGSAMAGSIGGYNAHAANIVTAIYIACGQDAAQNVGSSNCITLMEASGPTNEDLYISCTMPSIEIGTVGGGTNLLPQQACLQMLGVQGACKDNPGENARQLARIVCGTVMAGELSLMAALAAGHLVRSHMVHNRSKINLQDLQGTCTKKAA
Procedure: Rat Liver Microsomal Isolation Procedure:
Male Charles River Sprague-Dawley rats were fed with 2.5% cholestyramine in rat chow diets for 5 days before sacrificing. Livers were minced and homogenized in a sucrose homogenizing solution in an ice bath 10 times. Homogenates were diluted into a final volume of 200 mL, and centrifuged 15 min. with a Sorvall Centrifuge at 5° C., 10,000 rpm (12,000×G). The upper fat layer was removed and the supernatant decanted into fresh tubes. This step was repeated one more time before transferring the supernatant into ultracentrifuge tubes and centrifuged at 36,000 rpm (105,000×G) for an hour at 5° C. The resulting supernatant was discarded and the pellet was added to total of 15 mL 0.2 M KH2PO4. Pellets were homogenized gently by hand about 10 times. Samples were pooled and diluted into total of 60 mL buffer. The protein concentration of the homogenate was determined by the […] using a BCA (Bicinchoninic acid), kit from Pierce Chemical Company. 1 mL aliquots of microsomes were kept frozen in liquid nitrogen.
HMGCoA (3-Hydroxy-3-methylglutaryl CoA) Reductase Assay:
[3-^14C]-HMGCoA (57.0 mCi/mmol) was purchased from Amersham Biosciences, UK. HMGCoA, mevalonolactone, P-NADPH (P-Nicotinamide Adenine Dinucleotide Phosphate, Reduced form) were purchased from Sigma Chemical Co. AG 1-8×resin was purchased from Bio-Rad Laboratory. • 1. One μL of dimethyl sulfoxide (DMSO) or 1 μL of DMSO containing a test compound at a concentration sufficient to give a final assay concentration of between 0.1 nM to 1 mM was placed into each well of a Corning 96 well plate. A Volume of 34 µL of buffer (100 mM NaH2PO4, 10 mM Imidazole and 10 mM EDTA), (Ethylenediaminetetra acetic acid) containing with 50 µg/mL rat liver microsomes was added into each well. After incubation for 30 min. on ice, 15 µL of ^14C-HMGCoA (0.024 μCi) with 15 mM NADPH, 25 mM DTT, (Dithiothreitol) was added and incubated at 37° C. for an additional 45 min.
The reaction was terminated by the addition of 10 μL of HCl followed by 5 μL of mevalonolactone. Plates were incubated at room temperature overnight to allow lactonization of mevalonate to mevalonolactone. The incubated samples were applied to columns containing 300 μL of AG1-X8 anion exchange resin in a Corning filter plate.
The eluates were collected into Corning 96 well capture plates. Scintillation cocktail (Ultima-Flo-M) was added into each well and plates counted on a Trilux Microbeta Counter. The IC50 values were calculated with GraphPad software (Prism). Procedure: • 2. Add 1 μL DMSO or compounds into the wells according to the protocol • 3. Add 35 μL incubation buffer with the rat microsomes into each well. Incubate 30 min. at 4° C. • 4. Add 15 μL ^14C-HMGCoA. Incubate 45 min. at 37° C. • 5. Add 10 μL HCl stop reagent • 6. Add 5 μL mevelonolactone. Incubate overnight at room temperature • 7. Apply the containing into the AG 1-X8 anion exchange resin in Corning filter plate • 8. Collect the eluate into Corning capture plate • 9. Add scintillation cocktail Ultima-Flo-M • 10. Count on a Trilux Microbeta Counter μ • 11. Calculate IC50 values

[2] = system: Sterol Biosynthesis in Rat Hepatocytes; assay: Sterol biosynthesis in rat hepatocytes (14C acetic acid into cholesterol); type: cell-based; conditions: Hepatocyte
Procedure: Protocol for Sterol Biosynthesis in Rat Hepatocytes:
(§1) Cell culture, compounds treatment and cell labeling:
Frozen rat hepatocytes purchased from XenoTech (cat# N400572) were seeded on 6-well collagen I coated plates at a density of 10^5 cells/per well. The cells were grown in DMEM, (Dulbecco's Modified Eagle Medium) (Gibco, #11054-020) containing 10% FBS (Fetal Bovine Serum) and 10 mM HEPES, (N-2-hydroxyethyl-piperazine-N^1-2-ethane sulfonic acid) (Gibco # 15630-080) for 24 hrs. The cells were pre-incubated with compounds for 4 hrs and then labeled by incubating in medium containing 1 uCVper mL of ^14C acetic acid for an additional 4 hrs. After labeling, the cells were washed twice with 5 mM MOPS, (3-[N-morpholino] propane sulfonic acid) solution containing 150 mM NaCl and 1 mM EDTA and collected in the lysis buffer containing 10% KOH and 80% (vol.) ethanol. Cholesterol extraction and data analysis:
In order to separate labeled cholesterol from labeled non-cholesterol lipids, the cells lysates were subject to saponification at 60° C. for 2 hrs. The lysates were then combined with 0.5 volume of H2O and 2 volumes of hexane, followed by 30 minutes of vigorous shaking. After the separation of two phases, the upper-phase solution was collected and combined with 5 volumes of scintillation cocktail. The amount of ^14C cholesterol was quantified by liquid scintillation counting. The IC50 values were calculated with GraphPad software (Prism 3.03).

[3] = system: Sterol Biosynthesis in L6 Rat Myoblast; assay: Sterol biosynthesis in L6 rat myoblast (14C acetic acid into cholesterol); type: cell-based; conditions: 3 hours pre-incubation, 3 hours 14C acetic acid labeling
Procedure: C.) Protocol for Sterol Biosynthesis in L6 Rat Myoblast:
as §1
L6 rat myoblast purchased from ATCC (CRL-1458) were grown in T-150 vented culture flasks and seeded on 12-well culture plates at a density of 60,000 cells per well. The cells were grown in DMEM, (Dulbecco's Modified Eagle Medium) (Gibco, #10567-014) containing 10% heat inactivated FBS (Fetal Bovine Serum) (Gibco # 10082-139) for 72 hours until reaching confluence. The cells were pre-incubated in media with compound and 0.2% DMSO (dimethyl sulfoxide) for 3 hours and then labeled by incubating in medium containing compound, 0.2% DMSO and 1 □]Ci/per mL of ^14C acetic acid for an additional 3 hours. After labeling, the cells were washed once with 1×PBS (Gibco #14190-144) then lysed overnight at 4° C. in buffer containing 10% KOH and 78%(vol.) ethanol. Cholesterol extraction and data analysis:
Lipid ester bonds were hydrolyzed by saponification of the lysates at 60° C. for 2 hours. Sterols (including cholesterol) were extracted from saponified lysates by combining with 3 volumes of hexane and mixing by pipette 6 times. The upper organic phase solution was collected and combined with an equal volume of 1 N KOH in 50% methanol and mixed by pipette 6 times. The upper organic phase was collected in a scintilant-coated plate (Wallac #1450-501) and hexanes removed by evaporation at room temperature for 3 hours. The amount of ^14C cholesterol was quantified by scintillation counting in a Trilux 1450 plate reader (Wallac). The IC50 values were calculated from % inhibitions relative to negative controls vs. compound concentration on Microsoft excel 2000 data analysis wizard using a sigmoid inhibition curve model with formula: y=Bmax (1−(x^n/K^n+x^n))+y2
Where K is the IC50 for the inhibition curve, X is inhibitor concentration, Y is the response being inhibited and Bmax+Y2 is the limiting response as X approaches zero.

| SMILES | melting point | IC50 [1] [nM] | IC50 ([2]; Rattus norvegicus) [nM] | IC50 [3] [nM] | IC50 ([2]; cell assay, rat hepatocytes, 4 hrs pre-incubation, 4 hrs 14C acetic acid labeling, read-out: IC50) [nM] |
| --- | --- | --- | --- | --- | --- |
| CC(C)c1c(S(=O)(=O)Nc2ccccc2)c(-c2ccc(F)cc2)c(-c2ccc(F)cc2)n1CC[C@@H](O)C[C@@H](O)CC(=O)[O-].[Na+] [Example 1P, (3R,5R)-7-[2,3-bis-(4-fluoro-phenyl)-5-isopropyl-4-phenylsulfamoyl-pyrrol-1-yl]-3,5-dihydroxy-heptanoic acid monosodium salt] | 130 to 134 °C (dec.) |  |  |  |  |
| CC(C)c1c(C(=O)NCc2ccccc2)nc(-c2ccc(F)cc2)n1CC[C@@H](O)C[C@@H](O)CC(=O)O [Example 4] |  | 7.9 | 0.42 | 3070 |  |
| CC(C)c1c(S(=O)(=O)NCc2ccc(C(=O)[O-])cc2)c(-c2ccc(F)cc2)c(-c2ccc(F)cc2)n1CC[C@@H](O)C[C@@H](O)CC(=O)[O-].[Na+].[Na+] [Example 43P] | > 250 °C |  |  |  |  |
| Cc1cc(CNC(=O)c2nc(-c3ccc(F)cc3)n(CC[C@@H](O)C[C@@H](O)CC(=O)O)c2C(C)C)no1 [Example 62] |  | 7.2 | 0.58 | 703 |  |
| CC(C)c1c(C(=O)N2CCN(c3ccc(F)cc3F)CC2)nc(-c2ccc(F)cc2)n1CC[C@@H](O)C[C@@H](O)CC(=O)O [Example 69] |  | 2.2 | 0.18 | 159 |  |
| O=C1C[C@H](O)C[C@@H](CCn2c(-c3ccc(F)cc3)nc(C(=O)NCc3ccccc3)c2C2CC2)O1 [Example 103, 5-Cyclopropyl-2-(4-fluoro-phenyl)-1-[2-((2R,4R)-4-hydroxy-6-oxo-tetrahydro-pyran-2-yl)-ethyl]-1H-imidazole-4-carboxylic acid benzylamide] |  | 50.4 |  |  | 0.088 |
| COc1ccc(CNC(=O)c2nc(-c3ccc(F)cc3)n(CC[C@@H]3C[C@@H](O)CC(=O)O3)c2C2CC2)cc1 [Example 104, 5-Cyclopropyl-2-(4-fluoro-phenyl)-1-[2-((2R,4R)-4-hydroxy-6-oxo-tetrahydro-pyran-2-yl)-ethyl]-1H-imidazole-4-carboxylic acid 4-methoxybenzylamide] |  | 75.8 |  |  |  |
| O=C(O)C[C@H](O)C[C@H](O)CCn1c(-c2ccc(F)cc2)nc(C(=O)NCc2ccccc2)c1C1CC1 [Example 110, Sodium: (3R,5R)-7-[4-Benzylcarbamoyl-5-cyclopropyl-2-(4-fluoro-phenyl)-imidazol-1-yl]-3,5-dihydroxy-heptanoate] |  | 1.38 | 0.218 | 632 |  |
| COc1ccc(CNC(=O)c2nc(-c3ccc(F)cc3)n(CC[C@@H](O)C[C@@H](O)CC(=O)O)c2C2CC2)cc1 [Example 111] |  | 1.17 | 0.146 | 6400 |  |
| CN(Cc1ccccc1)C(=O)c1nc(-c2ccc(F)cc2)n(CC[C@@H](O)C[C@@H](O)CC(=O)O)c1C1CC1 [Example 112] |  | 8.39 | 1.15 | 73500 |  |
| CC(C)c1c(NC(=O)OCc2ccccc2)nc(-c2ccc(F)cc2)n1CC[C@@H](O)C[C@@H](O)CC(=O)[O-].[Na+] [Example 137, Sodium: (3R,5R)-7-[4-benzyloxycarbonylamino-2-(4-fluoro-phenyl)-5-isopropyl-imidazol-1-yl]-3,5-dihydroxy-heptanoate sodium salt] | 86 to 90 °C |  |  |  |  |

From patent US20060287378A1, “Novel pyrroles and imidazoles” (priority 2003, published 2006)
